Test results from patent US5637584A, “Solvate of olanzapine” (Eli Lilly and Company, priority 1995, dated 1997).

Key:
[1] = detection of radiolabelled compound in saliva; type: in vivo
Procedure: The anhydrous Form I 2-methyl-4-(4-methyl-1-piperazinyl)-10H-thieno-[2,3-b][1,5]benzodiazepine compound is effective over a wide dosage range, the actual dose administered being dependent on the condition being treated. For example, in the treatment of adult humans, dosages of from 0.25 to 30 mg, preferably from 1 to 20 mg, per day may be used. A once a day dosage is normally sufficient, although divided doses may be administered. For treatment of central nervous system disorders, a dose range of from 1 to 30 mg, preferably 2.5 to 20 mg per day is suitable.

[2] = stability of the anhydrous polymorph; type: physicochemical; details: suitability for pharmaceutical formulations
5-HT2B receptor = 5-HT2B receptor activity
[3] = tested on: apomorphine-induced climbing behavior; assay: apomorphine-induced climbing behavior in mice; type: in vivo
Text: (§1) The Form I olanzapine prepared by the process of this invention has useful central nervous system activity. […] For example, the anhydrous Form I compound has been assessed in a number of standard behavior tests predictive of antipsychotic activity. The claimed compound antagonised apomorphine-induced climbing behavior and hypothermia in mice. See Moore, N. A. et al Psychopharmacology 94 (2), 263-266 (1988).

catalepsy = assay: induction of catalepsy; type: in vivo; details: compared with doses required to block conditioned avoidance response
[4] = tested on: conditioned avoidance response; assay: conditioned avoidance response in rats; type: in vivo
[5] = tested on: apomorphine-induced hypothermia; assay: apomorphine-induced hypothermia in mice; type: in vivo
Text: as §1

Row | SMILES | detection in saliva [1] | stability of crystal form [2] | 5-HT2B receptor activity (5-HT2B receptor) | antagonism of apomorphine-induced climbing behavior [3] | induction of catalepsy (catalepsy) | inhibition of conditioned avoidance response [4] | antagonism of apomorphine-induced hypothermia [5]
1 | Cc1cc2c(s1)Nc1ccccc1N=C2N1CCN(C)CC1 [2-methyl-4-(4-methyl-1-piperazinyl)-10H-thieno-[2,3b][1,5]benzodiazepine] | can be detected in the saliva | – | – | – | – | – | –
2 | Cc1cc2c(s1)Nc1ccccc1N=C2N1CCN(C)CC1 [anhydrous Form II 2-methyl-4-(4-methyl-1-piperazinyl)-10H-th] [2-methyl-4-(4-methyl-1-piperazinyl)-10H-thieno[2,3-b][1,5]benzodiazepine] | – | metastable | – | – | – | – | –
3 | Cc1cc2c(s1)Nc1ccccc1N=C2N1CCN(C)CC1 [anhydrous Form I olanzapine, 2-methyl-4-(4-methyl-1-piperazinyl)-10H-thieno[2,3-b][1,5]benzodiazepine] | – | stable | 5-HT2B receptor activity | antagonised | induces cataleptsy only at higher doses | inhibits | antagonised
